Measurements published in patent US20050260181A1, “Compositions and methods for tissue repair” (Immunopath Profile, Inc., priority 2004, published 2005).
Where two headings read alike, the source gives them in different places.

Assays:
[1] = rats orally; cited from earlier work
[2] = tested on: T47D breast cancer tissue cells; assay: MTS breast cancer mitochondrial activity assay; type: cell-based; settings: for MTS suppression ratio (mean OD treated / mean OD control), 24 h: culture time 24 h; for MTS suppression ratio (mean OD treated / mean OD control), 24 h / MTS suppression ratio (mean OD treated / mean OD control), 48 h: 1.0 = no effect; for MTS suppression ratio (mean OD treated / mean OD control), 48 h: culture time 48 h
Protocol: In addition to and equal to the effects of high HLB surfactants for comparative testing. These comparative studies were performed and results are reported in the above table. Metabolism was comparatively measured with controls and other extracts as to the reduction of mitochondrial activity, (MTS). This compound is a substrate for the mitochondrial enzymes—and is reduced to a blue formazan product.
In the first experiments—The extracted therapeutic test agents were derived from specified tissue. Water extracts of the crushed tissue, were also prepared. For the later experiments, specific varieties of extracts were prepared and examined: Cells were obtained from American Type Culture Collection (ATCC, Washington, D.C.) and were cultured as recommended by ATCC. Experiments were performed in 96 well microtiter plates. Each well contained 1.0×10^4 cells suspended in a total volume of […]. Test wells contained the designated amount of extract in cell culture medium. Control wells contained the same amount of extract solvent in medium. Plates were incubated in an atmosphere of 5% C02 for 24 or 48 hours with extract or solvent. At this time, […] were added to each well and incubation was continued for an additional 4 hours after which time the optical density (OD) at […] of each well was recorded. In each experiment, each sample was assayed in triplicate and the mean optical density (OD) for the three wells containing the same culture was calculated.
Data are presented as suppression ratios. The suppression ratio defined here as the mean optical density (OD) for the wells containing extract divided by the mean optical density (OD) for the control wells.
The purpose of the work was to determine which therapeutic agent extracts (further separated by chromatography) explored through this methodology for anti-cancer activity. The data presented here represents semi-quantitative anti-cancer screening tests. Extracts with ratios in the range 0.51-0.74 were considered moderately active and therefore appropriate for considered use along with preventive anti-cancer treatment and active anti-cancer treatment. In co-use with anti-cancer treatment and radiation treatment, may lessen the dose and the side effects of these current therapeutic agents. Extracts with metabolism suppression ratios less than or equal to 0.5 represented a suppression of metabolism of at least 50% or greater than that of the controls and were considered definitely active potential anti-cancer agents, as was the case of High HLB Tween 80 with ethylene maturation apoptosis promoting factor with a 76% suppression of mitochondrial metabolism of cancer cells.

[3] = Circulation, blood viscosity and sedimentation rate with intermediate HLB lipid; type: in vivo; settings: HLB 8 to 11
From the text: The amount of surface-active polar lipid to include in the composition can be determined by viscosity measurements. Tissue concentration can be measured by viscosity (as used in blood serum which normally is 1.12 to 1.22 centipoise with upper limit of three). In the case of the intermediate HLB 8 to 11 (as exemplified by PC phosphatidylcholine when so used) circulation is improved 25% however there is no change in viscosity or the red blood cell sedimentation rate at these HLB ranges because of the fact that biophysical functional effects is upon the cell membrane. With its use the red cell membrane becomes more plastic, and is made more pliable thereby enhancing circulation and oxygenation.
Component No. 2 contains self-vesiculating essence of HLB 8 to 11 or 12, ideally 10 to 11, cell membrane forming and repairing liquid crystal phosphatidylcholine (PC), thereby increasing pliability of the red cell, blood vessel and endothelial membrane enhancing circulatory function by 25%. Component No. 2 optionally contains high HLB surfactants with packing parameters that not only enhance biologic function and efficiency of protein enzymes and their substrate but also promotes protein refolding and thereby normalizing biologic function. This helps to normalize the biologic function of disease promoting protein structures of Alzheimer's disease, Parkinson's disease, and Mad Cow disease. […]

[4] = rats and mice; cited from earlier work

| Compound | LD 50 [1] | MTS suppression ratio (mean OD treated / mean OD control), 24 h ([2]; T47D cells) | MTS suppression ratio (mean OD treated / mean OD control), 48 h ([2]; T47D cells) | improvement of circulation / circulatory function [3] | LD 50 [4] | suppression of mitochondrial metabolism of cancer cells [2] | % normalization of Breast cancer cells ([2]; T47D cells) |
| --- | --- | --- | --- | --- | --- | --- | --- |
| CCCCCCCCCCCCOS(=O)(=O)[O-].[Na+] [sodium lauryl sulfate] | 1288 mg per kilogram |  |  |  |  |  |  |
| phosphatidylcholine [PC] |  | 0.92 | 0.98 | 25% |  |  |  |
| polyglycerol polyricinolate [PGPR] |  |  |  |  | 7.5 ml per kilogram |  |  |
| polyoxyethylene Sorbitan Monooleate [Tween 80] |  | 0.48 | 0.24 |  | 7.5 ml per kilogram | 76% | 76% |
